Measured values reported in patent US10702568B2, “Compositions containing silymarin and sulfoalkyl ether cyclodextrin and methods of using the same” (UNIVERSITY OF KANSAS, priority 2015, dated 2020).

Columns and labels:
[1] = Silymarin solubility at elevated temperatures (Example 3, HPLC); format: physicochemical; conditions: 160 mg silymarin in 1 ml 0.1 M CAPTISOL®, sealed vial, 70-75° C., about one hour
Method: The solubility of silymarin was also studied at elevated temperatures. The silymarin-water samples were prepared by adding 3.0 ml of deionized water or 3.0 ml of CAPTISOL® solution (0.05 M, 0.10 M, or 0.20 M) to 155 mg silymarin 80% in 5 ml Eppendorf tube, and the tubes were capped securely to minimize evaporation loss and submerged in a water bath at an elevated temperature (60° C. or 75° C.)). CAPTISOL® solutions were prepared by dissolving CAPTISOL® in water. The solution in the tube was stirred for a certain amount of time. The solution was then centrifuged for 5 min twice and the supernatant was diluted with 40% methanol for HPLC analysis. The silymarin CAPTISOL® samples were diluted by adding 10 μL supernatant sample to 990 μL diluent. The silymarin water samples were diluted by adding 100 μL supernatant sample to 900 μL diluent. The diluted samples were then analyzed using HPLC according to the procedures described in Example 1.
Saturated CAPTISOL® silymarin solutions were also prepared by adding 160 mg silymarin to 1 ml of 0.1 M CAPTISOL® solution in a sealed vial under mechanic stirring and the vial was kept in a water bath at 70-75° C. The solution became quickly saturated in about one hour. The solution was then cooled to room temperature and centrifuged, and the supernatant can then be used for preparing various formulations. […]

[2] = Permeation across the porcine intestine (Franz diffusion cell); format: in vitro ADME; conditions: 37° C., receiver PBS pH 7.4
Method: The Silymarin-CAPTISOL® complex was tested for its permeability in the GI tract using the porcine intestine and the silymarin solution without CAPTISOL® as a control sample. Freshly excised porcine intestine was cleaned and sandwiched between the two chambers of a Franz diffusion cell with an active diffusion area of 0.64 cm^2. The donor chamber was filled with 0.5 ml of CAPTISOL® enabled silymarin solution (prepared using ligand method) or pure silymarin in Phosphate buffered saline (PBS): Ethanol (80:20) used as a positive control. Receiver chamber was filled with 5 ml of PBS, pH 7.4, which is stirred at 600 rpm with a 3 mm magnetic stir bar at 37° C. temperature maintained with a circulating water bath. 200 μL of buffer from receiver side was withdrawn at different time intervals (0, 1, 2, 4, 6 and 8 h) and equal volume was replaced with fresh PBS buffer. Above samples were transferred into vials and subjected to HPLC analysis.
The control sample was prepared by adding excess of the silymarin extract to Phosphate buffered saline (PBS): Ethanol (80:20). These samples were shook at room temperature for 24 hr, and at equilibrium the samples were centrifuged at 10,000 RPM and filtered using Millipore (0.22 μm) syringe filter. The filtrates were analyzed using HPLC for Taxifolin, Silychristin, Silydianin, Silybin A, Silybin B, Isosilybin A and Isosilybin B after appropriate dilution. […]

## O=C1c2c(O)cc(O)cc2O[C@H](c2ccc(O)c(O)c2)[C@H]1O [Taxifolin]
[1]
  concentration fold higher than in the water silymarin sample: 5 fold
[2]; Silymarin CAPTISOL® complex in donor chamber
  Apparent permeability coefficient Papp × 10^−3: 9.46 × 10^−3
[2]; Silymarin in Ethanol:PBS (20:80) (control)
  Apparent permeability coefficient Papp × 10^−3: 1.12 × 10^−3
